“Also recorded” adds a separate entry of the source.

Data set [1] relates to H-RAS^G12V/IκBαM organotypic human tissue. Briefly: Organotypic human tissue model of RAS-driven neoplastic invasion. Type of data set: cell-based. As for the experimental part: (§1) Retroviral Transduction. […] Alternatively transformation was achieved through combined infection with an LTR-driven retrovirus expressing oncogenic ER:H-RAS and a separate LTR-driven retrovirus expressing cyclin-dependent kinase 4 (CDK4). Polybrene was added to a final concentration of 5 ug/mL to cell media during infection. Infections were performed at 37° C. with low-speed centrifugation for 1 hour. Expression of these viral constructs was verified in vitro. […] As a control for a RAS-IκBα bicistronic virus (IIR), we also infected a separate pool of keratinocytes with a LacZ control virus. For dual ER:H-RAS and CDK4 infected cells, forty-eight hours after infection cultures were daily treated with either […] 40 hydroxytamoxifen or an equal volume of ethanol (vehicle).
(§2) Human Tissue Model System. […] Pieces with less hair follicles are preferable. […] Subsequently, the epidermis is peeled off. […] Tissue was grown for five to ten days total. For immunofluorescence analysis, tissue was placed in OCT.
(§3) Immunofluorescence and Invasion index. […] Tissue was counterstained with Hoescht to visualize cell nuclei.
Hum Gene Ther 8, 1659-1665 (1997)).

The next data set has as its system IQGAP1. Briefly: qRT-PCR validation of IQGAP1 knockdown. Conditions: two, four and six days post-nucleofection. Type of data set: cell-based, human. The text has this: siRNA-mediated knockdown. For each ERK/MAPK scaffold, siRNA oligos were designed and synthesized by Dharmacon. Subsequently, 1×10^6 early-passage neonatal keratinocytes were electroporated with 2 nMol of each siRNA oligo or 1 nMol each of two siRNA oligos using Amaxa nucleofection reagents and according to the manufacturer's protocol. A nonfunctional siRNA served as a negative control and ERK1/2 siRNA served as positive controls. The following siRNA oligos were used for this study (sense/antisense):
shRNA-mediated knockdown. The vectors for pGIPZ shRNA targeting IQGAP1 were designed and purchased through Open Biosystems catalog number V2LHS-86779 for shIQGAP1.E, V2LHS-86781 for shIQGAP1.F, and V2LHS-259635 for shIQGAP1.G. Cells were transduced as above with 1000× puromycin (1 mg/mL) selection applied daily. Transduction of cells was visualized under a fluorescent microscope
qRT-PCR Expression Analysis. At indicated time points, RNA was harvested from cells via treatment with TRIZOL by the standard Invitrogen protocol. Relative mRNA expression was determined by qRT-PCR analysis using a Stratagene Mx3000P thermocycler and Brilliant II SYBR green QRT-PCR 1-step master mix reagents. Primer concentration was 200 nM with 100 ng RNA. Samples were run in triplicate and normalized to levels of GAPDH mRNA for each reaction. The following primers were used for this study: […]
On the technique in general: Quantitative PCR measures a nucleic acid by following its amplification.

Data set [2] has as its system normal human organotypic tissue expressing LacZ.
Description: (§4) Human Tissue Model System. Dermis can be ordered from National Disease Research Interchange (NDRI) and New York Firefighter Skin Bank. Tissue is inspected for overall thickness as well as continuity across the spectrum. Pieces with less hair follicles are preferable. This tissue is cultures in a mixture of antibiotics and antimyotics for a period of 10-14 days. Subsequently, the epidermis is peeled off. The devitalized dermis is then ready to be repopulated with 2-4×10^5 neonatal human fibroblasts by low speed centrifugation for 1 hour. Tissue is raised to the air-liquid interface and seeded with 0.5-1×10^6 genetically modified human keratinocytes to stimulate differentiation and stratification (Ridky, T. W., et al. Invasive three-dimensional organotypic neoplasia from multiple normal human epithelia. Nat Med 16, 1450-1456 (2010); PrunieRAS, M., et al. Methods for cultivation of keratinocytes with an air-liquid interface. J Invest Dermatol 81, 28-33 (1983)). Tissue was treated with drug/peptide as indicated by application directly into culture media daily. Tissue was grown for five to ten days total. For immunofluorescence analysis, tissue was placed in OCT. For histological analysis, tissue was fixed in 10% formalin (Sigma-Aldrich) and embedded in paraffin.
(§5) Immunofluorescence and Invasion index. OCT embedded tissue samples were cut into 7 um sections then fixed and permeabilized by incubation in ice-cold methanol or acetone for 10 minutes at −20° C. followed by blocking in 10% horse serum in PBS for 1 hour. Tissue sections were then incubated with primary antibodies, followed by Alexafluor-488 conjugated or Alexafluor-555 conjugated, goat anti-mouse or goat anti-rabbit secondary antibodies (Molecular Probes). The following antibodies were used: rabbit anti-keratin-5 (1:4000, Covance, PRB-160P), mouse anti-collagen VII (1:200, Millipore, MAB2500), anti-mouse Keratin 10 (1:200, Neomarkers, MS611P), anti-mouse Transglutaminase (1:100, Biomedical Technology, BT-621), anti-rabbit Loricrin (1:200, Covance, PRB-145P), and anti-rabbit Ki67 (1:100, Neomarkers, SP6). Tissue was counterstained with Hoescht to visualize cell nuclei. Microscopy was performed on an Olympus FV1000 scanning laser confocal microscope. For each sample, 30 sequential Z-sections were taken in 3 channels (DAPI—405/450 nm excitation/emission, FITC-488/512 ex/em and TRITC-540/570 ex/em) allowing for subsequent three-dimensional reconstruction analysis. […] Relative invasion index was quantified as number of keratin-positive epithelial cells below the collagen-positive basement membrane zone (BMZ) measured 10 times across 3 independent 20× fields of view. Ki67 quantification was quantified as number of Ki67-positive epithelial cells measured 10 times across 3 independent 20× fields of view. […]
Data set [3] relates to PLX-4032 sensitive BRAFV600E melanoma cell lines (SK-MeI-28, A375, SK-MeI-5). Briefly: Proliferation of PLX-4032 sensitive melanoma lines with peptide. Type of data set: cell-based, human. Conditions: increasing doses of R8-myc-tagged WW peptide. How it is done:
(A) Proliferation of PLX-4032 sensitive BRAFV600E melanoma cell lines (P1, SK-MeI-28; P2, A375; and P3, SK-MeI-5) at increasing doses of R8-myc-tagged WW peptide. (B) Proliferation assays of PLX-4032 resistant lines (R1, SK-MeI-28; R2, A375; and R3, SK-MeI-5) treated with 5 μM R8-myc-tagged SCR peptide and DMSO (control), 5 μM SCR peptide and 5 μM PLX-4032 (PLX-4032), or 5 μM R8-myc-tagged WW peptide and DMSO (5 μM WW).
Cell Viability Assay. Genetically modified adherent cancer cell lines were seeded in equivalent, low density cultures in duplicate to 24-well plates. 24 hours post-seeding, media was removed and replaced with 500 uL of a 5:1 mixture of cell media and cell titre blue reagent (Promega). Cultures were incubated with this mixture for 2 hours at 37° C. in the dark. Fluorescence ([…]) for 100 uL in triplicates of each sample was recorded. Incubation with cell titre blue reagent and fluorescent readings were repeated every two days for a total of twelve days. Values plotted correspond to readings taken while control samples are still growing exponentially.

For data set [4], the system named is PLX-4032 resistant BRAFV600E melanoma lines (SK-MeI-28, A375, SK-MeI-5). Briefly: Proliferation of PLX-4032 resistant melanoma lines. Type of data set: cell-based, human. Conditions: 5 μM R8-myc-tagged WW peptide and DMSO.
Data set [5] concerns IQGAP1-Erk1/2 interaction. Briefly: Immunoprecipitation of endogenous IQGAP1 protein and associated Erk. Type of data set: cell-based, human. To be noted: 10 μM peptide daily for six days, SK-MeI-28 cells. As for the experimental part:
(A) Immunoprecipitation of endogenous IQGAP1 protein and associated Erk from primary human cells (normal) or BRAFV600E mutant SK-MeI-28 melanoma cells (cancer) following daily treatment with 10 μM R8-myc-tagged SCR or WW peptide for six days. (B) Relative Erk levels as a function of immunoprecipitated IQGAP1 as in (d). n=3, ±SD.
Immunoprecipitation of endogenous IQGAP1 protein and associated Erk. Cells were cross-linked with 1 mL of 20 mM DSP (Thermo Scientific) for 1 hour at 4° C. and the reaction was stopped with washes in 50 mM Tris. Cells were lysed in 20 mM Tris, 150 mM NaCl, 0.2% NP40, 10% Glycerol with 0.5 mM dTT and protease/phosphatase inhibitors added directly before use (buffer 1) for 1 hour at 4° C., but not pelleted. 1 mg lysate in 500 uL was combined with 5 ug of mouse anti-IQGAP1 antibody (Millipore 05-504) in buffer 1 and rocked overnight at 4° C. 30 uL of protein G sepharose 4 fast flow (GE Healthcare) were washed in buffer 1 and combined with lysate for 1 hour at 4° C. Supernatent was removed to check for immunodepletion. Beads were washed 3 times in 20 mM Tris, 150 mM NaCl, 1% Triton X-100 with protease/phosphatase inhibitors added directly before use (buffer 2). Immunoprecipitate was eluted from beads in 200 uL of 4×LDS sample buffer in buffer 1 plus 5% BME. […]

The test system of data set [6] is SK-MeI-28 melanoma xenograft tumors. Briefly: Systemic delivery of WW peptide in vivo by osmotic pump. To be noted: subcutaneous osmotic pump, 19 mg/kg/day for 14 days. As for the experimental part: (A) Established xenograft tumors derived from BRAFV600E mutant SK-MeI-28 melanoma cancer cells were subcutaneously implanted with osmotic pumps (Alzet model 2002) (indicated by black arrows) which released 19 mg/kg/day of R8-myc-tagged Scrambled or WW peptide for 14 days (indicated by hash bars) with tumor growth quantified by mean average radiance (n=3 mice per group). […] (D) Representative data of tumor growth as quantified by tumor volume±SEM from d28 and d43.
Systemic delivery of WW peptide in vivo. 0.5×10^6 luciferase-expressing SK-MeI-28 were injected into the subcutaneous space of hairless immunodeficient 6-8 week old SCID mice (SHO stock, Charles Rovers). Mouse xenografts were allowed to grow untreated for 1 week. Subsequently, tumors were measured and randomized two groups of similar tumor size. Each group was subcutaneously implanted with osmotic pumps (Alzet, model 2002) releasing 0.5 uL of R8-myc-tagged scrambled or WW peptide per hour for 14 days.
To test the efficacy of systemic delivery of WW peptide in vivo, 0.5×10^6 luciferase-expressing SK-MeI-28 were injected into the subcutaneous space of hairless immunodeficient 6-8 week old SCID mice (SHO stock, Charles Rovers). Mouse xenografts were allowed to grow untreated for 1 week. Subsequently, tumors were measured and randomized two groups of similar tumor size. Each group was subcutaneously implanted with osmotic pumps (Alzet, model 2002) releasing 0.5 uL of scrambled or WW peptide per hour for 14 days.

Data set [7] deals with Ras-driven organotypic human epidermal neoplasia. Briefly: Ras-driven organotypic human epidermal neoplasia (ER:H-RAS/CDK4, 4OHT) invasion. The format is cell-based. To be noted: peptide 10 uM daily in media vs scrambled control peptide. As for the experimental part:
as §1, §2, §3
Exogenous delivery of the WW domain to human tissue. […] Briefly stromal primary human fibroblasts were seeded onto devitalized human dermis and subsequently elevated to a sterilized annular dermal support (ADS) tissue culture insert device (Ridky, supra). […]

The next data set deals with ERK. Briefly: Protein expression analysis of phosphorylated and total ERK (immunoblot / immunohistochemistry). Type of data set: cell-based, human. To be noted: Ras-driven organotypic neoplasia, peptide 10 uM daily. As for the experimental part:
Protein Expression Analysis. Cells were lysed in 20 mM Tris (pH 7.5), 150 mM NaCl, 1 mM EDTA, and 1% NP40 supplemented with complete mini EDTA-free protease inhibitors (Roche) and phosphatase inhibitor cocktails I and II (Sigma-Aldrich). 5-20 ug of lysate were loaded per lane, subjected to 10-12% SDS-PAGE or 16% Tricine electrophoresus (Invitrogen NuPage), and subsequently transfer to PVDF membranes via semidry transfer. Primary antibody incubations were performed overnight at 4° C. Secondary antibody incubations were for 1 hour at room temperature. The following antibodies were used: rabbit anti-ERK1/2 (1:1000, Cell Signaling, 9201), rabbit anti-phosphorylated ERK1/2 (1:1000, Thr202/Tyr204, Cell Signaling, 9201), mouse anti-IQGAP1 (1:400, Upstate, 05-504), rabbit anti-RAS (1:500, Santa Cruz, sc-520), rabbit anti-IκBa (1:500, Cell Signaling, 9242), Rabbit anti-β-Galactosidase (1:1000, Cappel, 55976), rabbit anti myc (1:500, Abcam, ab9106), mouse anti-actin (1:10,000, Sigma, 5316), donkey anti-rabbit IgG conjugated to horseradish peroxidase (HRP)(1:20,000, Amersham Biosciences), and donkey anti-mouse IgG conjugated to horseradish peroxidase (HRP)(1:20,000, Amersham Biosciences).

Data set [8] relates to normal human organotypic tissue expressing LacZ. Briefly: Normal organotypic human tissue homeostasis. To be noted: drug daily, same concentrations as in neoplastic tissue (UO126 5 μM).
Description: as §4, §5
[9] abbreviates: drug daily in culture media: UO126 5 μM, SB0203580 2.6 μM, PD98059 18.7 μM, LY294002 5 μM.
[10] abbreviates: siRNA-nucleofected keratinocytes.

Consider `COc1cccc(-c2cc(=O)c3ccccc3o2)c1N` [PD098059], for which, in data set [1] (setting [9]), the neoplastic invasion entry is recorded as “did not have an abrogating effect on neoplastic invasion; also recorded: did not block invasion”.
On to “siIQGAP1.B: siRNA to 3′ UTR of IQGAP1, SEQ ID NO: 13/14 (chain 1 CCUCUCGCUCUGAUGGGACAUUUGU; chain 2 ACAAAUGUCCCAUCAGAGCGAGAGG; chemistry not given here)”, for which the “durability of IQGAP1 knockdown” value in the data set on IQGAP1 is on record as “more durable knockdown”. In [2], the normal tissue phenotype entry is listed as “phenotypically normal tissue”. Further, in [1] (setting [10]), the neoplastic invasion result was “no invasion”.
Take `C[S+]([O-])c1ccc(-c2nc(-c3ccncc3)c(-c3ccc(F)cc3)[nH]2)cc1` (centres unmarked) [SB203580]: the neoplastic invasion result in [1] (setting [9]) is recorded as “did not completely block invasion; also recorded: did not see effects”.
On to “siIQGAP1.A: siRNA to coding sequence of IQGAP1, SEQ ID NO: 11/12 (chain 1 GAACGUGGCUUAUGAGUACUU; chain 2 GUACUCAUAAGCCACGUUCUU; chemistry not given here)”, for which the normal tissue phenotype entry in data set [2] is recorded as “phenotypically normal tissue”. Besides, in [1] (setting [10]), the neoplastic invasion entry is given as “no invasion”.
Turning to “siIQGAP1.C: siRNA to 3′ UTR of IQGAP1, SEQ ID NO: 15/16 (chain 1 CAGCCAUCAUGACAUUUACCAUGAA; chain 2 UUCAUGGUAAAUGUCAUGAUGGCUG; chemistry not given here)”, in the data set on IQGAP1, the “durability of IQGAP1 knockdown” value is “more durable knockdown”. The normal tissue phenotype entry in data set [2] is on record as “phenotypically normal tissue”. For the same molecule, the neoplastic invasion entry in data set [1] (setting [10]) is given as “no invasion”.
“WW peptide: 32 amino acid IQGAP1 WW domain peptide, myc-tagged, made cell penetrating by adding eight arginine residues (RRRRRRRREQKLISEEDLDNNSKWVKHWVKGGYYYYHNLETQEGGWDEPP)”: in [3], the “proliferation of BRAF mutant melanoma cells” value is on record as “inhibited proliferation of BRAF mutant melanoma cells in a dose-dependent manner”. Further, in [4], the “growth of PLX-4032-resistant melanoma cells” value was “inhibited growth of PLX-4032-resistant melanoma cells similarly to PLX-4032-sensitive parental cells; also recorded: bypasses resistance to B-Raf inhibitors”. Besides, the “total Erk1/2 bound to endogenous IQGAP1” value in data set [5] is on record as “significantly decreased”. Further, in data set [6], the “toxic effects to animals” value is recorded as “without adverse toxic effects to animals” and the “weight gain of mice” value is listed as “no negative effects on mouse growth”. In addition, the “tumorigenesis / tumor growth” value in [6] (19 mg/kg/day) is listed as “diminishes tumorigenesis; also recorded: can inhibit tumorigenesis”. In [7], the BMZ degradation entry is reported as “abrogated BMZ degradation” and the neoplastic invasion result is “abolished neoplastic invasion; also recorded: inhibits neoplastic invasion”. In addition, the pErk1/2 levels entry in the data set on ERK is “diminished pErk1/2 levels”.
`N#CC(=C(/N)Sc1ccccc1N)/C(C#N)=C(/N)Sc1ccccc1N` [UO126]: in data set [8], the normal tissue homeostasis entry is “without affecting normal tissue homeostasis”.

These data come from US9155774B2, “Scaffold-kinase interaction blockades and uses thereof in treating cancer” (THE BOARD OF TRUSTEES OF THE LELAND STANFORD JUNIOR …, priority 2011, dated 2015).
